{"source": "patent US4294958A", "about": "“Water-soluble salts of trimethylammonium derivatives of polyene macrolide antibiotics and the preparation thereof” (Politechnika Gdanska, priority 1978, dated 1981)", "assay_type_in_all_cases": "cell-based", "key": {"[1]": {"system": "Saccharomyces cerevisiae cells", "assay": "antifungal activity: inhibition of growth of Saccharomyces cerevisiae in liquid standard medium", "method": "IC50 means the concentration of the substance causing 50% inhibitio\nof the growth of Saccharomyces cerevisiae cells in liquid standard medium\ndetermined spectrophotometrically at λ = 600 nm after 24 hours"}, "[2]": {"assay": "haemolytic activity (hemoglobin, determined spectrophotometrically)", "description": "(§1) EH50 means the concentration of the substance causing in conditions\n(§2) 50% of hemoglobin determined spectrophotometrically at λ = 550 nm."}, "hemoglobin": {"system": "hemoglobin", "assay": "haemolytic activity (hemoglobin, determined spectrophotometrically)", "description": "as §1, §2"}, "[3]": {"conditions": "in vitro haemolysis, 50% of hemoglobin, λ = 550 nm, read-out: EH50 (the source's name)"}, "[4]": {"conditions": "50% inhibition of growth of Saccharomyces cerevisiae, liquid standard medium, λ = 600 nm, 24 hours, 28° C., read-out: IC50"}, "[5]": {"conditions": "50% inhibition of growth of Saccharomyces cerevisiae, liquid standard medium, λ = 600 nm, 24 hours, 28° C."}, "[6]": {"conditions": "in vitro haemolysis, 50% of hemoglobin, λ = 550 nm"}}, "note": "Where two headings read alike, the source gives them in different places."}
{"compound": "C[C@@H]1[C@H](O)[C@@H](C)/C=C/C=C/C=C/C=C/C=C/C=C/C=C/[C@H](O[C@@H]2O[C@H](C)[C@@H](O)[C@H](N)[C@@H]2O)C[C@@H]2O[C@](O)(C[C@@H](O)C[C@@H](O)[C@H](O)CC[C@@H](O)C[C@@H](O)CC(=O)O[C@H]1C)C[C@H](O)[C@H]2C(=O)O", "note": "[Amphotericin B, amphotericin B]", "values": [{"measurement": "IC50", "setting": "[1]; Saccharomyces cerevisiae, 24 h", "result": 0.03, "unit": "µg/mL"}, {"measurement": "HC50", "setting": "[2]; [3]", "result": 5, "unit": "µg/mL"}]}
{"compound": "COc1cc2c(c3oc(-c4ccccc4)cc(=O)c13)C=CC(C)(C)O2", "note": "[Candidin, candidin]", "values": [{"measurement": "IC50", "setting": "[1]; [4]", "result": 0.054, "unit": "µg/mL"}, {"measurement": "HC50", "setting": "[2]; [3]", "result": 20, "unit": "µg/mL"}]}
{"compound": "COC(=O)[C@H]1[C@@H]2C[C@@H](O[C@@H]3O[C@H](C)[C@@H](O)[C@H]([N+](C)(C)C)[C@@H]3O)/C=C/C=C/C=C/C=C/C=C/C=C/C=C/[C@H](C)[C@@H](O)[C@@H](C)[C@H](C)OC(=O)C[C@H](O)C[C@H](O)CC[C@@H](O)[C@H](O)C[C@H](O)C[C@](O)(C[C@@H]1O)O2", "note": "[DMS-Amphotericin B, N,N,N-trimethylamphotericin B methyl ester]", "values": [{"measurement": "IC50", "setting": "[1]; [4]", "result": 0.08, "unit": "µg/mL"}, {"measurement": "HC50", "setting": "[2]; [3]", "result": 5, "unit": "µg/mL"}]}
{"compound": "C[C@@H]1[C@H](O)[C@@H](C)/C=C/C=C/C=C/C=C/C=C/C=C/C=C/[C@H](O[C@@H]2O[C@H](C)[C@@H](O)[C@H](N)[C@@H]2O)C[C@@H]2O[C@](O)(C[C@@H](O)[C@H](O)CC[C@@H](O)CC(=O)C[C@@H](O)CC(=O)O[C@H]1C)C[C@H](O)[C@H]2C(=O)O", "note": "[Mycoheptin, mycoheptin]", "values": [{"measurement": "IC50", "setting": "[1]; [5]", "result": 0.05, "unit": "µg/mL"}, {"measurement": "EH50", "setting": "hemoglobin; [6]", "result": 15, "unit": "µg/mL"}]}
{"compound": "C[C@@H]1[C@H](O)[C@@H](C)/C=C/C=C/CC/C=C/C=C/C=C/C=C/C(O[C@H]2O[C@H](C)[C@@H](O)[C@H](N)[C@@H]2O)CC2O[C@](O)(CC(O)C(O)CCC(O)CC(O)CC(O)CC(=O)O[C@H]1C)CC(O)C2C(=O)O", "note": "(stereo partly drawn) [Nystatin, nystatin]", "values": [{"measurement": "IC50", "setting": "[1]; [5]", "result": 0.1, "unit": "µg/mL"}, {"measurement": "EH50", "setting": "hemoglobin; [6]", "result": 50, "unit": "µg/mL"}]}
{"compound": "C[C@@H]1C/C=C/C=C/C=C/C=C/[C@H](O[C@@H]2O[C@H](C)[C@@H](O)[C@H](N)[C@@H]2O)C[C@@H]2O[C@](O)(C[C@@H](O)C[C@H]3O[C@@H]3/C=C/C(=O)O1)C[C@H](O)[C@H]2C(=O)O", "note": "[Pimaricin, pimaricin]", "values": [{"measurement": "IC50", "setting": "[1]; [4]", "result": 1, "unit": "µg/mL"}, {"measurement": "HC50", "setting": "[2]", "result": 100, "unit": "µg/mL"}]}
{"compound": "CCC[C@@H]1C/C=C/C=C/C=C/C=C/[C@H](O[C@@H]2O[C@H](C)[C@@H](O)[C@H](N)[C@@H]2O)C[C@@H]2O[C@](O)(C[C@@H](O)CCCC(=O)C[C@@H](O)[C@H](CC)C(=O)O1)C[C@H](O)[C@H]2C(=O)O", "note": "[Rimocidin, rimocidin]", "values": [{"measurement": "IC50", "setting": "[1]; [5]", "result": 1.5, "unit": "µg/mL"}, {"measurement": "EH50", "setting": "hemoglobin; [6]", "result": 30, "unit": "µg/mL"}]}
{"compound": "N,N,N-dimethyl-mycoheptin methyl ester [DMS-Mycoheptin]", "values": [{"measurement": "IC50", "setting": "[1]; [5]", "result": 0.2, "unit": "µg/mL"}, {"measurement": "EH50", "setting": "hemoglobin; [6]", "result": 65, "unit": "µg/mL"}]}
{"compound": "N,N,N-trimethylcandidin methyl ester [DMS-Candidin]", "values": [{"measurement": "IC50", "setting": "[1]; [5]", "result": 0.15, "unit": "µg/mL"}, {"measurement": "EH50", "setting": "hemoglobin; [6]", "result": 70, "unit": "µg/mL"}]}
{"compound": "N,N,N-trimethylnystatin methyl ester [DMS-Nystatin]", "values": [{"measurement": "IC50", "setting": "[1]; [5]", "result": 0.25, "unit": "µg/mL"}, {"measurement": "EH50", "setting": "hemoglobin; [6]", "result": 100, "unit": "µg/mL"}]}
{"compound": "N,N,N-trimethylpolifungin methyl ester [DMS-Polifungin]", "values": [{"measurement": "IC50", "setting": "[1]; [5]", "result": 0.15, "unit": "µg/mL"}, {"measurement": "EH50", "setting": "hemoglobin", "result": 120, "unit": "µg/mL"}]}
{"compound": "N,N,N-trimethylrimocidin methyl ester [DMS-Rimocidin]", "values": [{"measurement": "IC50", "setting": "[1]; [5]", "result": 2.5, "unit": "µg/mL"}, {"measurement": "EH50", "setting": "hemoglobin; [6]", "result": 50, "unit": "µg/mL"}]}
{"compound": "aureofacin", "values": [{"measurement": "IC50", "setting": "[1]; [5]", "result": 0.005, "unit": "µg/mL"}, {"measurement": "EH50", "setting": "hemoglobin; [6]", "result": 0.35, "unit": "µg/mL"}]}
{"compound": "candicidin", "values": [{"measurement": "IC50", "setting": "[1]; [5]", "result": 0.005, "unit": "µg/mL"}, {"measurement": "EH50", "setting": "hemoglobin; [6]", "result": 2.5, "unit": "µg/mL"}]}
{"compound": "levorin", "values": [{"measurement": "IC50", "setting": "[1]; [5]", "result": 0.007, "unit": "µg/mL"}, {"measurement": "EH50", "setting": "hemoglobin; [6]", "result": 2.5, "unit": "µg/mL"}]}
{"compound": "perimycin", "values": [{"measurement": "IC50", "setting": "[1]; [5]", "result": 0.002, "unit": "µg/mL"}, {"measurement": "EH50", "setting": "hemoglobin; [6]", "result": 5, "unit": "µg/mL"}]}
{"compound": "polyfungin [Polifungin]", "values": [{"measurement": "IC50", "setting": "[1]; [5]", "result": 0.08, "unit": "µg/mL"}, {"measurement": "EH50", "setting": "hemoglobin", "result": 20, "unit": "µg/mL"}]}
{"compound": "trichomycin", "values": [{"measurement": "IC50", "setting": "[1]; [5]", "result": 0.005, "unit": "µg/mL"}, {"measurement": "EH50", "setting": "hemoglobin; [6]", "result": 3, "unit": "µg/mL"}]}
